pIC50, pKi: −log10 of the molar value.
Assays:
MDMX = biological target: T1, MDMX (Homo sapiens, UniProt O15151); assay: Competitive fluorescence polarization assay for MDMX; type: binding; details: competitive FP assay; for pIC50: read-out: IC50 (MDMX); for pKi: read-out: Ki (MDMX)
T1 sequence (O15151 1-125): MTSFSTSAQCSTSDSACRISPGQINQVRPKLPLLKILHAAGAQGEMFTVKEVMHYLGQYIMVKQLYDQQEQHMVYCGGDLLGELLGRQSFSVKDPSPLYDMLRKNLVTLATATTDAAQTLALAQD

MDM2 = MDM2 (Homo sapiens, UniProt Q00987); assay: Competitive fluorescence polarization assay for MDM2; type: binding; details: competitive FP assay, MDM2; for pIC50: read-out: IC50 (MDM2); for pKi: read-out: Ki (MDM2)
MDM2, sequence (Q00987 1-125): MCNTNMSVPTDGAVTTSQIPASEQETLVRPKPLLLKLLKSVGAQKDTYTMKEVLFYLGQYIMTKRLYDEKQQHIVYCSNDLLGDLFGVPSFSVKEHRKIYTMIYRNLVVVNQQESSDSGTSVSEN

CC(=O)N[C@@H](CC(C)C)C(=O)N[C@H](C(=O)N[C@@H](Cc1ccccc1)C(=O)N[C@]1(C)CCCCCCC=CCCC[C@@](C)(C(=O)N[C@@H](C)C(=O)N[C@@H](C)C(=O)N[C@@H](CC(C)C)C(=O)N[C@H](C)C(N)=O)NC(=O)[C@H](CC(C)C)NC(=O)[C@H](CCC(N)=O)NC(=O)[C@H](C)NC(=O)[C@H](Cc2c[nH]c3ccccc23)NC(=O)[C@H](Cc2c[nH]cn2)NC(=O)[C@H](CCC(=O)O)NC1=O)[C@@H](C)O (single isomer, unassigned) [compound 227]
pIC50 (MDMX): 6.00 to 7.00 | pKi (MDMX): 7.00 to 8.00 | pIC50 (MDM2): > 8.00 | pKi (MDM2): > 8.00

CC(=O)N[C@@H](CC(C)C)C(=O)N[C@H](C(=O)N[C@@H](Cc1ccccc1)C(=O)N[C@]1(C)CCCCCCC=CCCC[C@@](C)(C(=O)N[C@@H](CO)C(=O)N[C@@H](C)C(=O)N[C@@H](C)C(N)=O)NC(=O)[C@H](CC2CCC2)NC(=O)[C@H](CCC(N)=O)NC(=O)[C@H](C)NC(=O)[C@H](Cc2c[nH]c3ccccc23)NC(=O)[C@H](Cc2ccc(C(=O)O)cc2)NC(=O)[C@H](CCC(=O)O)NC1=O)[C@@H](C)O (single isomer, unassigned) [compound 291]
pIC50 (MDMX): 7.00 to 8.00 | pKi (MDMX): > 8.00 | pIC50 (MDM2): 7.00 to 8.00 | pKi (MDM2): > 8.00

CC(=O)N[C@@H](CC(C)C)C(=O)N[C@H](C(=O)N[C@@H](Cc1ccccc1)C(=O)N[C@]1(C)CCCCCCC=CCCC[C@@](C)(C(=O)N[C@@H](CO)C(=O)N[C@@H](C)C(=O)N[C@@H](C)C(N)=O)NC(=O)[C@H](CC2CCC2)NC(=O)[C@H](CCC(N)=O)NC(=O)[C@H](CO)NC(=O)[C@H](Cc2c[nH]c3ccccc23)NC(=O)[C@H](Cc2ccc(O)cc2)NC(=O)[C@H](CCC(=O)O)NC1=O)[C@@H](C)O (single isomer, unassigned) [compound 293]
pIC50 (MDMX): 7.00 to 8.00 | pKi (MDMX): 7.00 to 8.00 | pIC50 (MDM2): > 8.00 | pKi (MDM2): > 8.00

CCCC[C@H](NC(=O)[C@H](C)NC(=O)[C@H](C)NC(=O)[C@]1(C)CCCC=CCCCCCC[C@@](C)(NC(=O)[C@H](Cc2ccc(F)c(F)c2)NC(=O)[C@@H](NC(=O)[C@H](CC(C)C)NC(C)=O)[C@@H](C)O)C(=O)N[C@@H](C)C(=O)N[C@@H](Cc2ccc(O)cc2)C(=O)N[C@@H](Cc2c[nH]c3ccccc23)C(=O)N[C@@H](C)C(=O)N[C@@H](CCC(N)=O)C(=O)N[C@@H](CCC(C)C)C(=O)N1)C(=O)N[C@@H](C)C(N)=O (single isomer, unassigned) [compound 308]
pIC50 (MDMX): 6.00 to 7.00 | pKi (MDMX): 7.00 to 8.00 | pIC50 (MDM2): 6.00 to 7.00 | pKi (MDM2): 7.00 to 8.00

CCCC[C@H](NC(=O)[C@H](C)NC(=O)[C@H](C)NC(=O)[C@]1(C)CCCC=CCCCCCC[C@@](C)(NC(=O)[C@H](Cc2ccccc2)NC(=O)[C@@H](NC(=O)[C@H](CC(C)C)NC(C)=O)[C@@H](C)O)C(=O)N[C@@H](C)C(=O)N[C@@H](Cc2ccc(C(=O)O)cc2)C(=O)N[C@@H](Cc2c[nH]c3ccccc23)C(=O)N[C@@H](C)C(=O)N[C@@H](CCC(N)=O)C(=O)N[C@@H](CCC(C)C)C(=O)N1)C(=O)N[C@@H](C)C(N)=O (single isomer, unassigned) [compound 310]
pIC50 (MDMX): 7.00 to 8.00 | pKi (MDMX): 7.00 to 8.00 | pIC50 (MDM2): 7.00 to 8.00 | pKi (MDM2): > 8.00

CCCC[C@H](NC(=O)[C@H](C)NC(=O)[C@H](C)NC(=O)[C@]1(C)CCCC=CCCCCCC[C@@](C)(NC(=O)[C@H](Cc2ccccc2)NC(=O)[C@@H](NC(=O)[C@H](CC(C)C)NC(C)=O)[C@@H](C)O)C(=O)N[C@@H](C)C(=O)N[C@@H](Cc2ccc(O)cc2)C(=O)N[C@@H](Cc2c[nH]c3ccccc23)C(=O)N[C@@H](CO)C(=O)N[C@@H](CCC(N)=O)C(=O)N[C@@H](CCC(C)C)C(=O)N1)C(=O)N[C@@H](C)C(N)=O (single isomer, unassigned) [compound 312]
pIC50 (MDMX): 6.00 to 7.00 | pKi (MDMX): 7.00 to 8.00 | pIC50 (MDM2): 7.00 to 8.00 | pKi (MDM2): 7.00 to 8.00

CC(=O)N[C@@H](C)C(=O)N[C@@H](CC(C)C)C(=O)N[C@H](C(=O)N[C@@H](Cc1ccccc1)C(=O)N[C@]1(C)CCCCCCC=CCCC[C@@](C)(C(=O)N[C@@H](CO)C(=O)N[C@@H](C)C(=O)N[C@@H](C)C(N)=O)NC(=O)[C@H](CC2CCC2)NC(=O)[C@H](CCC(N)=O)NC(=O)[C@H](C)NC(=O)[C@H](Cc2c[nH]c3ccccc23)NC(=O)[C@H](Cc2ccc(O)cc2)NC(=O)[C@H](CCC(=O)O)NC1=O)[C@@H](C)O (single isomer, unassigned) [compound 328]
pIC50 (MDMX): 7.00 to 8.00 | pKi (MDMX): 7.00 to 8.00 | pIC50 (MDM2): 7.00 to 8.00 | pKi (MDM2): > 8.00

CCCC[C@H](NC(=O)[C@H](C)NC(=O)[C@H](CO)NC(=O)[C@]1(C)CCCC=CCCCCCC[C@@](C)(NC(=O)[C@H](Cc2ccccc2)NC(=O)[C@@H](NC(=O)[C@H](CC(C)C)NC(C)=O)[C@@H](C)O)C(=O)N[C@@H](CCC(=O)O)C(=O)N[C@@H](Cc2ccc(C(=O)O)cc2)C(=O)N[C@@H](Cc2c[nH]c3cc(Cl)ccc23)C(=O)N[C@@H](C)C(=O)N[C@@H](CCC(N)=O)C(=O)N[C@@H](CC2CCC2)C(=O)N1)C(=O)N[C@@H](C)C(N)=O (single isomer, unassigned) [compound 334]
pIC50 (MDMX): 7.00 to 8.00 | pKi (MDMX): > 8.00 | pIC50 (MDM2): > 8.00 | pKi (MDM2): > 8.00

CCCC[C@H](NC(=O)[C@H](C)NC(=O)[C@H](C)NC(=O)[C@]1(C)CCCC=CCCCCCC[C@@](C)(NC(=O)[C@H](Cc2ccccc2)NC(=O)[C@@H](NC(=O)[C@H](CC(C)C)NC(C)=O)[C@@H](C)O)C(=O)N[C@@H](C)C(=O)N(C)[C@@H](Cc2ccc(O)cc2)C(=O)N[C@@H](Cc2c[nH]c3ccccc23)C(=O)N[C@@H](C)C(=O)N[C@@H](CCC(N)=O)C(=O)N[C@@H](CC(C)C)C(=O)N1)C(=O)N[C@@H](C)C(N)=O (single isomer, unassigned) [compound 384]
pIC50 (MDMX): < 6.00 | pKi (MDMX): < 6.00 | pIC50 (MDM2): 6.00 to 7.00 | pKi (MDM2): 6.00 to 7.00

CCCC[C@H](NC(=O)[C@H](C)NC(=O)[C@H](C)NC(=O)[C@]1(C)CCCC=CCCCCCC[C@@](C)(NC(=O)[C@H](Cc2ccccc2)NC(=O)[C@@H](NC(=O)[C@H](CC(C)C)NC(C)=O)[C@@H](C)O)C(=O)N[C@@H](C)C(=O)N[C@@H](Cc2ccc(O)cc2)C(=O)N(C)[C@@H](Cc2c[nH]c3ccccc23)C(=O)N[C@@H](C)C(=O)N[C@@H](CCC(N)=O)C(=O)N[C@@H](CC(C)C)C(=O)N1)C(=O)N[C@@H](C)C(N)=O (single isomer, unassigned) [compound 386]
pIC50 (MDMX): < 6.00 | pKi (MDMX): < 6.00 | pIC50 (MDM2): 6.00 to 7.00 | pKi (MDM2): 6.00 to 7.00

CCCC[C@H](NC(=O)[C@H](C)NC(=O)[C@H](C)NC(=O)[C@]1(C)CCCC=CCCCCCC[C@@](C)(NC(=O)[C@H](Cc2ccccc2)NC(=O)[C@@H](NC(=O)[C@H](CC(C)C)NC(C)=O)[C@@H](C)O)C(=O)N[C@@H](C)C(=O)N[C@@H](Cc2ccc(O)cc2)C(=O)N[C@@H](Cc2c[nH]c3ccccc23)C(=O)NC(C)(C)C(=O)N[C@@H](CCC(N)=O)C(=O)N[C@@H](CC(C)C)C(=O)N1)C(=O)N[C@@H](C)C(N)=O (single isomer, unassigned) [compound 390]
pIC50 (MDMX): 7.00 to 8.00 | pKi (MDMX): 7.00 to 8.00 | pIC50 (MDM2): 7.00 to 8.00 | pKi (MDM2): > 8.00

CCCC[C@H](NC(=O)[C@@H](C)NC(=O)[C@H](C)NC(=O)[C@]1(C)CCCC=CCCCCCC[C@@](C)(NC(=O)[C@H](Cc2ccccc2)NC(=O)[C@@H](NC(=O)[C@H](CC(C)C)NC(C)=O)[C@@H](C)O)C(=O)N[C@@H](C)C(=O)N[C@@H](Cc2ccc(O)cc2)C(=O)N[C@@H](Cc2c[nH]c3ccccc23)C(=O)N[C@@H](C)C(=O)N[C@@H](CCC(N)=O)C(=O)N[C@@H](CC(C)C)C(=O)N1)C(=O)N[C@@H](C)C(N)=O (single isomer, unassigned) [compound 394]
pIC50 (MDMX): 7.00 to 8.00 | pKi (MDMX): > 8.00 | pIC50 (MDM2): > 8.00 | pKi (MDM2): > 8.00

CCCC[C@H](NC(=O)[C@H](C)NC(=O)[C@H](C)NC(=O)[C@]1(C)CCCC=CCCCCCC[C@@](C)(NC(=O)[C@H](Cc2ccccc2)NC(=O)[C@@H](NC(=O)[C@H](CC(C)C)NC(C)=O)[C@@H](C)O)C(=O)N[C@@H](C)C(=O)N[C@@H](Cc2ccc(O)cc2)C(=O)N[C@@H](Cc2c[nH]c3ccccc23)C(=O)N[C@@H](C)C(=O)N[C@@H](CCC(N)=O)C(=O)N[C@@H](CC(C)C)C(=O)N1)C(=O)NC(C)(C)C(N)=O (single isomer, unassigned) [compound 398]
pIC50 (MDMX): 7.00 to 8.00 | pKi (MDMX): 7.00 to 8.00 | pIC50 (MDM2): 7.00 to 8.00 | pKi (MDM2): > 8.00

CCCC[C@H](NC(=O)[C@H](C)NC(=O)[C@H](C)NC(=O)[C@]1(C)CCCC=CCCCCCC[C@@](C)(NC(=O)[C@H](Cc2ccccc2)NC(=O)[C@@H](NC(=O)[C@H](CC(C)C)NC(C)=O)[C@@H](C)O)C(=O)N[C@@H](C)C(=O)N[C@@H](Cc2ccc(O)cc2)C(=O)N[C@@H](Cc2c[nH]c3ccccc23)C(=O)N[C@@H](C)C(=O)N[C@@H](CCC(N)=O)C(=O)N[C@@H](CC(C)C)C(=O)N1)C(=O)N(C)CC(N)=O (single isomer, unassigned) [compound 402]
pIC50 (MDMX): > 8.00 | pKi (MDMX): > 8.00 | pIC50 (MDM2): > 8.00 | pKi (MDM2): > 8.00

CCCC[C@H](NC(=O)[C@H](C)NC(=O)[C@H](C)NC(=O)[C@]1(C)CCCC=CCCCCCC[C@@](C)(NC(=O)[C@H](Cc2ccccc2)NC(=O)[C@@H](NC(=O)[C@H](CC(C)C)NC(C)=O)[C@@H](C)O)C(=O)N[C@@H](C)C(=O)N[C@@H](Cc2ccc(O)cc2)C(=O)N[C@@H](Cc2c[nH]c3ccccc23)C(=O)N[C@@H](C)C(=O)N[C@@H](CCC(N)=O)C(=O)N[C@@H](CC(C)C)C(=O)N1)C(=O)N[C@@H](C)C(=O)NC(C)(C)C(N)=O (single isomer, unassigned) [compound 404]
pIC50 (MDMX): 7.00 to 8.00 | pKi (MDMX): > 8.00 | pIC50 (MDM2): 7.00 to 8.00 | pKi (MDM2): > 8.00
